“Also recorded” adds a separate entry of the source.
Tests used:
[1] = tested on: human dermal fibroblasts; assay: Immunostaining with anti-tropoelastin antibody and morphometric analysis of elastic fiber deposition in 7-day dermal fibroblast cultures; assay type: cell-based; settings: for elastogenesis level compared with VGVAPG or EBPL-1 treated cultures: 7 day-old primary cultures of dermal fibroblasts; for extracellular elastic fibers deposited (anti-tropoelastin immunostaining) / levels of intra- and extracellular tropoelastin (immunocytochemical staining): 7 days; for extracellular elastic fibers deposited (anti-tropoelastin immunostaining): fibroblasts, VGVAPG 5 μg/mL, EBPL-2 5 μg/mL, EBPL-3 10 μg/mL; for more elastic fibers / tropoelastin than control cultures, maximally produced (quantitative morphometric analysis of immuno-detectable tropoelastin): maximum effect vs control
Method: In all experiments except those using CDBR, consecutive passages 3-7 were tested. Cells were incubated in the presence and absence of VGVAPG (SEQ ID NO. 1) (5 μg/mL), EBPL-2 (5 μg/mL) and EBPL-3 (10 μg/mL). In experiments using CDRB cell passage 3 was tested, cells were densely plated (50×10^6 cells/dish) to rich immediate confluency and than cultured for 7 days in the presence and absence of 25 μg/ml CDBR (added at day 1 and 3).

[2] = tested on: human fibroblasts derived from normal human skin; assay: [3H]-valine metabolic labeling and assay of newly deposited NaOH-insoluble elastin in fibroblast cultures; assay type: cell-based; settings: [3H]-valine labeling 3 days; for net deposition of insoluble elastin, maximum over control values: expressed per culture dish, dose dependent
Method: Fibroblasts were densely plated (50×10^5/dish) and grown to confluency in 10 cm cell culture dishes in quadruplicate. 20 μCi of [^3H]-valine was added to each dish along with fresh media. Cultures were then incubated for 72 hours and insoluble elastin was assessed separately in each culture.

[3] = tested on: elastin gene in adult dermal fibroblasts; assay: RT-PCR with specific tropoelastin probe (transcription of the elastin gene); assay type: cell-based, human; settings: serum-free medium and 10% FBS
Text: Using a BLAST search through the National Library of Medicine website, we identified the IGVAPG (SEQ ID NO. 13) domain in the amino acid sequence for a transcription factor of Japanese rice, which also reflects the common EBP-binding GXXPG (SEQ ID NO. 2) motif found in elastin and laminin. We used RT-PCR to measure transcription of the elastin gene by peptides of the invention.

[4] = tested on: dermal fibroblasts; assay: Cellular proliferation by [3H]-thymidine incorporation; assay type: cell-based, human; settings: dermal fibroblasts vs control
Text: Results of this calculation, showing a more profound effect of EBPL-2 on net deposition of insoluble elastin per culture, led to the hypothesis that EBPL-2, similarly to VGVAPG (SEQ ID NO. 1), also stimulates cellular proliferation.

[5] = tested on: human skin explants; assay: Organ cultures of human skin explants stained with Movat pentachrome stain; assay type: cell-based
[6] = adult dermal fibroblasts, 7 day old cultures
[7] = organ cultures of human skin biopsies

Row | Substance | elastogenesis level compared with VGVAPG or EBPL-1 treated cultures [1] | extracellular elastic fibers deposited (anti-tropoelastin immunostaining) [1] | more elastic fibers / tropoelastin than control cultures, maximally produced (quantitative morphometric analysis of immuno-detectable tropoelastin) [1, 6] [%] | levels of intra- and extracellular tropoelastin (immunocytochemical staining) ([1]; adult dermal fibroblasts) | net deposition of insoluble elastin, maximum over control values [2] [%] | transcription of the elastin gene [3] | incorporation of [3H]-thymidine (cellular proliferation) [4] | more tropoelastin than maximum ProK-60-induced levels ([1]; adult dermal fibroblasts, 7 day old cultures, maximum vs maximum ProK-60) [%] | more radioactively labeled insoluble elastin as compared to non-treated fibroblasts ([2]; 10 μg/mL, normalized per DNA content) [%] | elastic fibers (black stain) in skin explant organ cultures ([5]; 10-day old organ cultures, person) | dilatation of existing dermal capillaries [5, 7] | production of new elastic fibers by pericytes [5, 7]
1 | IGVAPGAAAAAIGVAPG (Synthetic derived from Oryza sativa) [EBPL-3] | capable of inducing elastogenesis to the levels that exceed those obtained in cultures treated with VGVAPG | deposition of thick extracellular elastic fibers |  |  |  |  |  |  |  |  |  | 
2 | VGVAPG (Synthetic derived from Oryza sativa) [elastin receptor ligand hexapeptide obtained from Sigma, reference compound] |  | very thin extracellular elastic fibers at levels greater than the control levels | 457 | enhanced levels of intra- and extracellular tropoelastin | 109 | stimulated transcription | higher than control incorporation of [^3H]-thymidine |  |  |  |  | 
3 | IGVAPG (Synthetic derived from Oryza sativa) [EBPL-2] | capable of inducing elastogenesis to the levels that exceed those obtained in cultures treated with VGVAPG; also recorded: higher net deposition of tropoelastin than their counterparts cultured with VGVAPG | deposition of thick extracellular elastic fibers | 710 | enhanced levels of intra- and extracellular tropoelastin | 175 | increased transcription of the elastin gene | higher than control incorporation of [^3H]-thymidine | 141 | 36 | contained more elastic fibers | stimulates dilatation of existing capillaries | stimulated production of new elastic fibers by pericytes
4 | VGVAPGAAAAAVGVAPG (Synthetic derived from Oryza sativa) [EBPL-1] |  | very thin extracellular elastic fibers at levels greater than the control levels |  |  |  |  |  |  |  |  |  | 

Source: patent US10844101B2, “Plant-derived elastin binding protein ligands and methods of using the same” (ELASTOGENESIS, LLC, priority 2005, dated 2020)
